The text below walks through data of ChEMBL document CHEMBL1777734, “Molecular hybridization of 4-azahexacyclo[5.4.1.0(2,6).0(3,10).0(5,9).0(8,11)]dodecane-3-ol with sigma (σ) receptor ligands modulates off-target activity and subtype selectivity” (Bioorg Med Chem Lett, 2011).

Experiment [1] addresses Sigma non-opioid intracellular receptor 1 (Rattus norvegicus, UniProt Q9R0C9). Briefly: Displacement of [3H](+)-pentazocine from sigma 1 receptor in rat brain homogenate. Format: tissue-based. In general terms: Displacement assays read how much labelled ligand stays bound in the presence of the test substance.
Experiment [2] can be described thus: Displacement of [3H]DTG from sigma 2 receptor in rat brain homogenate. It counts as tissue-based.
Experiment [3] has as its target D(1A) dopamine receptor (Homo sapiens, UniProt P21728). Put plainly: Displacement of [3H][…] from human D1 receptor expressed in HEK cells. It counts as cell-based, HEK293.
Experiment [4] deals with D(1B) dopamine receptor (Homo sapiens, UniProt P21918). Briefly: Displacement of [3H][…] from human D5 receptor expressed in HEK cells. Format: cell-based, HEK293.
Experiment [5] concerns the target T1, D(2) dopamine receptor (Homo sapiens, UniProt P14416). Put plainly: Displacement of [3H]N-methylspiperone from human D2 receptor expressed in HEK cells. Format: cell-based, HEK293.
Experiment [6] deals with T2, D(3) dopamine receptor (Homo sapiens, UniProt P35462). Put plainly: Displacement of [3H]N-methylspiperone from human D3 receptor expressed in HEK cells. It counts as cell-based, HEK293.
Experiment [7] deals with T3, D(4) dopamine receptor (Homo sapiens, UniProt P21917).
T3 sequence (P21917 whole entry): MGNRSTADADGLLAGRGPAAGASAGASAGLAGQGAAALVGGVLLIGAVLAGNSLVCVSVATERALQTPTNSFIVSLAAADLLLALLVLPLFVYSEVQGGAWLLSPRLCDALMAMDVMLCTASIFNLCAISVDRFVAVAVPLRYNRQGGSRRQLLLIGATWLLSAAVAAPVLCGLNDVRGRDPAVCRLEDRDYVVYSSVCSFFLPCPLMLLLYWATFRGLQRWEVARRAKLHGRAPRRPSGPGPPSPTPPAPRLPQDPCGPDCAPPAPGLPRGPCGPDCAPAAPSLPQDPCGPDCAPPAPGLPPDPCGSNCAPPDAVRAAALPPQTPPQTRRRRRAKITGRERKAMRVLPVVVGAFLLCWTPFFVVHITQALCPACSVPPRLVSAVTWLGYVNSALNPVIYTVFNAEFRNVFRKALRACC
Briefly: Displacement of [3H]N-methylspiperone from human D4 receptor expressed in HEK cells. Format: cell-based, HEK293.

The target in experiment [8] is T1, D(2) dopamine receptor. Briefly: Displacement of [3H]N-methylspiperone from human D2 receptor expressed in HEK cells at 10 uM. Format: cell-based. Conditions: HEK293.
Experiment [9] deals with T2, D(3) dopamine receptor. Put plainly: Displacement of [3H]N-methylspiperone from human D3 receptor expressed in HEK cells at 10 uM. It counts as cell-based. The conditions noted are these: HEK293.
The species entered for experiment [10] is Rattus norvegicus. Briefly: Ratio of Ki for rat sigma 2 receptor to Ki for rat sigma 1 receptor.

Sigma non-opioid intracellular receptor 1, sequence (Q9R0C9 whole entry): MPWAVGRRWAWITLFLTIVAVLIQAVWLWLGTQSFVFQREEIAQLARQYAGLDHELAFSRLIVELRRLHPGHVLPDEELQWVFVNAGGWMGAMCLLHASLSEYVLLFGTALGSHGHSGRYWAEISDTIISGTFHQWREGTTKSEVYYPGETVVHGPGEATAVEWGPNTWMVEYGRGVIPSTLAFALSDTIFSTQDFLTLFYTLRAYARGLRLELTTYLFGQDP
D(1A) dopamine receptor, sequence (P21728 whole entry): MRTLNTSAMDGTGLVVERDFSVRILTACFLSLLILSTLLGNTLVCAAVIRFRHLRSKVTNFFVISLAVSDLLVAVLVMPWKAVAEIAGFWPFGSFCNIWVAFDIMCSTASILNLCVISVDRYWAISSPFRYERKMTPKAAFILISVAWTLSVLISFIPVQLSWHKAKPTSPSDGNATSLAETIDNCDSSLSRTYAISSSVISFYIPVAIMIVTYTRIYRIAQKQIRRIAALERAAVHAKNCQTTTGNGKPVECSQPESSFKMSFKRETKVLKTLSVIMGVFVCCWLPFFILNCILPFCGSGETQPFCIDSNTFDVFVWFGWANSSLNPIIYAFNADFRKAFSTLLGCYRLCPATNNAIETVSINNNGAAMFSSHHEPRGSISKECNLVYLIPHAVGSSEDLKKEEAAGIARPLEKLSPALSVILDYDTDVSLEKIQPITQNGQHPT
T1 sequence (P14416 whole entry): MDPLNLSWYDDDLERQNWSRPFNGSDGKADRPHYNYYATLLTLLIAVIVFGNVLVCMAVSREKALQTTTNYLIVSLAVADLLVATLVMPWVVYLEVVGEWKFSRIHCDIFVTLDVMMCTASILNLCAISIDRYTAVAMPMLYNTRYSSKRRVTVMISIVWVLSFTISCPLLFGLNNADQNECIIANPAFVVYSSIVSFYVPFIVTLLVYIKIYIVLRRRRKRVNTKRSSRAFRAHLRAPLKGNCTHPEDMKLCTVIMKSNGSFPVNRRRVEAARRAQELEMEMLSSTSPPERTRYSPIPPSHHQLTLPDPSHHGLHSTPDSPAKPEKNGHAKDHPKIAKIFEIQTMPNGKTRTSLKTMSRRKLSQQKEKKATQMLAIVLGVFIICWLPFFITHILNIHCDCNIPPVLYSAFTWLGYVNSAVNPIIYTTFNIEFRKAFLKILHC
T2 sequence (P35462 whole entry): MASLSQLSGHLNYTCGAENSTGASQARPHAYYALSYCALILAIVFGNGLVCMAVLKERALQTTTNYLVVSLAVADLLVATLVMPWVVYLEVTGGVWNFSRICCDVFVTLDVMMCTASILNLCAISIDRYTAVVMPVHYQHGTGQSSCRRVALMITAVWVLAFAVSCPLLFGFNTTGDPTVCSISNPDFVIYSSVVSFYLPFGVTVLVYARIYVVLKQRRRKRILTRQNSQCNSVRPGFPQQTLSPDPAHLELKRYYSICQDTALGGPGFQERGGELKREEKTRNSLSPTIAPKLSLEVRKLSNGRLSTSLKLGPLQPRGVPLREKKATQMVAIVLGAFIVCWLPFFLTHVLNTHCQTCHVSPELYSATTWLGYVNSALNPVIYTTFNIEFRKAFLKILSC
D(1B) dopamine receptor, sequence (P21918 whole entry): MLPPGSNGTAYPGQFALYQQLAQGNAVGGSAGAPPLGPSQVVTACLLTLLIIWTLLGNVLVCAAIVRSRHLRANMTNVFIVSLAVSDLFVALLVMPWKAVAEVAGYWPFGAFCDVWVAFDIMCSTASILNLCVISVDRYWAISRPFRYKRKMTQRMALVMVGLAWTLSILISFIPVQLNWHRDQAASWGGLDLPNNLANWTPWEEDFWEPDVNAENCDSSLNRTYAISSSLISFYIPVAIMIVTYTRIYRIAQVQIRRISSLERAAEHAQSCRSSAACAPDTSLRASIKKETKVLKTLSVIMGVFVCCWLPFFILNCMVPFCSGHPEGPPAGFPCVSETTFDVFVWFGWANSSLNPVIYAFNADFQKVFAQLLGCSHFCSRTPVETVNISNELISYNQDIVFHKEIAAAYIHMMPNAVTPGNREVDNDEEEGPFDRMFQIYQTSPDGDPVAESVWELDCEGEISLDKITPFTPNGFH

One may read the Ki as the dissociation constant of the complex between target and ligand, obtained from inhibition or displacement. Higher therefore signals a looser hold on the target. For `O=C(CCCN1C2C3C4CC5C6C4C2C6C1(O)C53)c1ccc(F)cc1` (stereo not given), the Ki in [1] was 27 nM; in experiment [2] it was 55 nM; in [3], 209 nM; in [4], > 10000 nM; in [5], 1720 nM; in [6] it was 1960 nM. This compound also showed a Ki in experiment [7] of 93 nM.

In the case of `COc1ccc(C)cc1C(=O)NCCN1C2C3C4CC5C6C4C2C6C1(O)C53` (stereo not given), the Ki in experiment [1] was 7.6 nM; in [2], 225 nM; in experiment [5], > 10000 nM; in experiment [6] it was > 10000 nM. For the same compound, the Activity in [8] and in [9] was < 50% each time. Moreover, the Ratio Ki in experiment [10] is 30.

Regarding `COc1cc2c(cc1OC)CN(CCNC(=O)c1cc(C)ccc1OC)CC2`, the inhibition constant Ki in experiment [2] was 13.3 nM.

`O=C(CCCN1CCC(O)(c2ccc(Cl)cc2)CC1)c1ccc(F)cc1` [HALOPERIDOL] returned an inhibition constant (Ki) in [2] of 7.93 nM.

As for `COc1ccc(CCN2C3C4C5CC6C7C5C3C7C2(O)C64)cc1OCCc1ccccc1` (stereo not given), the inhibition constant (Ki) is 20 nM in experiment [1], 93 nM in experiment [2], > 10000 nM in experiment [3] and > 10000 nM in [5]. In addition, in [8], the Activity was < 50%. Besides, the Ratio Ki in [10] is 4.7.

Usually IC50 stands for the concentration at which inhibition is half-maximal. A low value points to inhibition by little substance. In the case of `CCCN(CCC)CCc1ccc(OC)c(OCCc2ccccc2)c1`, the affinity in experiment [2] corresponds to a Ki of 212 nM. Moreover, the 50% inhibitory concentration (IC50) in experiment [3] and in experiment [5] was > 10000 nM throughout.
